Columns and labels:
Format in all cases: in vivo
[1] = tested on: barnyardgrass (Echinochloa crus-galli); assay: Test A preemergence, barnyardgrass; settings: 0 to 100 scale (0 no effect, 100 complete control)
From the text: (§1) Seeds of barnyardgrass (Echinochloa crus-galli), large crabgrass (Digitaria sanguinalis), giant foxtail (Setaria faberi), morningglory (Ipomoea spp.), pigweed (Amaranthus retroflexus), velvetleaf (Abutilon theophrasti), wheat (Triticum aestivum), and corn (Zea mays) were planted into a blend of loam soil and sand and treated preemergence with a directed soil spray using test chemicals formulated in a non-phytotoxic solvent mixture which included a surfactant. At the same time these species were also treated with postemergence applications of test compounds formulated in the same manner. Plants ranged in height from two to ten cm and were in the one- to two-leaf stage for the postemergence treatment. Treated plants and untreated controls were maintained in a greenhouse for approximately ten days, after which time all treated plants were compared to untreated controls and visually evaluated for injury. Plant response ratings, summarized in Table A, are based on a 0 to 100 scale where 0 is no effect and 100 is complete control. A dash (-) response means no test result.

[2] = tested on: large crabgrass (Digitaria sanguinalis); assay: Test A preemergence, large crabgrass; settings: 0 to 100 scale (0 no effect, 100 complete control)
From the text: as §1

[3] = tested on: giant foxtail (Setaria faberi); assay: Test A preemergence, giant foxtail; settings: 0 to 100 scale (0 no effect, 100 complete control)
From the text: as §1

[4] = tested on: morningglory (Ipomoea spp.); assay: Test A preemergence, morningglory; settings: 0 to 100 scale (0 no effect, 100 complete control)
From the text: as §1

[5] = tested on: pigweed (Amaranthus retroflexus); assay: Test A preemergence, pigweed; settings: 0 to 100 scale (0 no effect, 100 complete control)
From the text: as §1

[6] = tested on: velvetleaf (Abutilon theophrasti); assay: Test A preemergence, velvetleaf; settings: 0 to 100 scale (0 no effect, 100 complete control)
From the text: as §1

[7] = tested on: wheat (Triticum aestivum); assay: Test A preemergence, wheat; settings: 0 to 100 scale (0 no effect, 100 complete control)
From the text: as §1

corn (Zea mays) [8] = assay: Test A preemergence, corn; settings: 0 to 100 scale (0 no effect, 100 complete control)
From the text: as §1

[9] = tested on: barnyardgrass (Echinochloa crus-galli); assay: Test A postemergence, barnyardgrass; settings: 0 to 100 scale (0 no effect, 100 complete control)
From the text: as §1

[10] = tested on: large crabgrass (Digitaria sanguinalis); assay: Test A postemergence, large crabgrass; settings: 0 to 100 scale (0 no effect, 100 complete control)
From the text: as §1

[11] = tested on: giant foxtail (Setaria faberi); assay: Test A postemergence, giant foxtail; settings: 0 to 100 scale (0 no effect, 100 complete control)
From the text: as §1

[12] = tested on: morningglory (Ipomoea spp.); assay: Test A postemergence, morningglory; settings: 0 to 100 scale (0 no effect, 100 complete control)
From the text: as §1

[13] = tested on: pigweed (Amaranthus retroflexus); assay: Test A postemergence, pigweed; settings: 0 to 100 scale (0 no effect, 100 complete control)
From the text: as §1

[14] = tested on: velvetleaf (Abutilon theophrasti); assay: Test A postemergence, velvetleaf; settings: 0 to 100 scale (0 no effect, 100 complete control)
From the text: as §1

[15] = tested on: wheat (Triticum aestivum); assay: Test A postemergence, wheat; settings: 0 to 100 scale (0 no effect, 100 complete control)
From the text: as §1

corn (Zea mays) [16] = assay: Test A postemergence, corn; settings: 0 to 100 scale (0 no effect, 100 complete control)
From the text: as §1

rice (Oryza sativa) = assay: Test B flooded paddy test, rice; settings: Flood, scale 0 to 100
From the text: (§2) Plant species in the flooded paddy test consisted of rice (Oryza sativa), umbrella sedge (Cyperus difformis), ducksalad (Heteranthera limosa) and barnyardgrass (Echinochloa crus-galli) grown to the 2-leaf stage for testing. At time of treatment, test pots were flooded to 3 cm above the soil surface, treated by application of test compounds directly to the paddy water, and then maintained at that water depth for the duration of the test. Treated plants and controls were maintained in a greenhouse for 13 to 15 days, after which time all species were compared to controls and visually evaluated. Plant response ratings, summarized in Table B, are based on a scale of 0 to 100 where 0 is no effect and 100 is complete control. A dash (-) response means no test result.

[17] = tested on: umbrella sedge (Cyperus difformis); assay: Test B flooded paddy test, umbrella sedge; settings: Flood, scale 0 to 100
From the text: as §2

[18] = tested on: ducksalad (Heteranthera limosa); assay: Test B flooded paddy test, ducksalad; settings: Flood, scale 0 to 100
From the text: as §2

[19] = tested on: barnyardgrass (Echinochloa crus-galli); assay: Test B flooded paddy test, barnyardgrass; settings: Flood
From the text: as §2

[20] = 250 g ai/ha, scale 0 to 100 (0 no effect, 100 complete control)

CC1(C)CC([S+]([O-])Cc2c(C(F)(F)F)nc3n(c2=O)CCC3)=NO1 (stereo not drawn) [Compound 10, 3-[[(4,5-dihydro-5,5-dimethyl-3-isoxazolyl)sulfinyl]methyl]-7,8-dihydro-2-(trifluoromethyl)pyrrolo[1,2-α]pyrimidin-4(6H)-one]
Plant response rating, Barnyardgrass ([1]; 125 g ai/ha): 0
Plant response rating, Barnyardgrass ([1]; 500 g ai/ha): 70
Plant response rating, Crabgrass, Large ([2]; 125 g ai/ha): 0
Plant response rating, Crabgrass, Large ([2]; 500 g ai/ha): 80
Plant response rating, Foxtail, Giant ([3]; 125 g ai/ha): 20
Plant response rating, Foxtail, Giant ([3]; 500 g ai/ha): 80
Plant response rating, Morningglory ([4]; 125 g ai/ha): 0
Plant response rating, Morningglory ([4]; 500 g ai/ha): 0
Plant response rating, Pigweed ([5]; 125 g ai/ha): 0
Plant response rating, Pigweed ([5]; 500 g ai/ha): 0
Plant response rating, Velvetleaf ([6]; 125 g ai/ha): 0
Plant response rating, Velvetleaf ([6]; 500 g ai/ha): 0
Plant response rating, Wheat ([7]; 125 g ai/ha): 0
Plant response rating, Wheat ([7]; 500 g ai/ha): 30
Plant response rating, Corn (corn (Zea mays) [8]; 125 g ai/ha): 0
Plant response rating, Corn (corn (Zea mays) [8]; 500 g ai/ha): 10
Plant response rating, Barnyardgrass ([9]; 125 g ai/ha): 30
Plant response rating, Barnyardgrass ([9]; 500 g ai/ha): 80
Plant response rating, Crabgrass, Large ([10]; 125 g ai/ha): 40
Plant response rating, Crabgrass, Large ([10]; 500 g ai/ha): 70
Plant response rating, Foxtail, Giant ([11]; 125 g ai/ha): 30
Plant response rating, Foxtail, Giant ([11]; 500 g ai/ha): 70
Plant response rating, Morningglory ([12]; 125 g ai/ha): 10
Plant response rating, Morningglory ([12]; 500 g ai/ha): 20
Plant response rating, Pigweed ([13]; 125 g ai/ha): 10
Plant response rating, Pigweed ([13]; 500 g ai/ha): 30
Plant response rating, Velvetleaf ([14]; 125 g ai/ha): 10
Plant response rating, Velvetleaf ([14]; 500 g ai/ha): 40
Plant response rating, Wheat ([15]; 125 g ai/ha): 0
Plant response rating, Wheat ([15]; 500 g ai/ha): 20
Plant response rating, Corn (corn (Zea mays) [16]; 125 g ai/ha): 0
Plant response rating, Corn (corn (Zea mays) [16]; 500 g ai/ha): 20
Plant response rating, Rice (rice (Oryza sativa); 31 g ai/ha): 0
Plant response rating, Rice (rice (Oryza sativa); 62 g ai/ha): 0
Plant response rating, Rice (rice (Oryza sativa); 125 g ai/ha): 0
Plant response rating, Rice (rice (Oryza sativa); 250 g ai/ha): 0
Plant response rating, Sedge, Umbrella ([17]; 31 g ai/ha): 0
Plant response rating, Sedge, Umbrella ([17]; 62 g ai/ha): 0
Plant response rating, Sedge, Umbrella ([17]; 125 g ai/ha): 0
Plant response rating, Sedge, Umbrella ([17]; 250 g ai/ha): 0
Plant response rating, Ducksalad ([18]; 31 g ai/ha): 0
Plant response rating, Ducksalad ([18]; 62 g ai/ha): 0
Plant response rating, Ducksalad ([18]; 125 g ai/ha): 0
Plant response rating, Ducksalad ([18]; 250 g ai/ha): 0
Plant response rating, Barnyardgrass ([19]; 31 g ai/ha, scale 0 to 100): 0
Plant response rating, Barnyardgrass ([19]; 62 g ai/ha, scale 0 to 100): 0
Plant response rating, Barnyardgrass ([19]; 125 g ai/ha, scale 0 to 100): 0
Plant response rating, Barnyardgrass [19, 20]: 0

CC1(C)CC([S+]([O-])Cc2c(C(F)(F)Cl)nc3n(c2=O)CCC3)=NO1 (stereo not drawn) [Compound 17]
Plant response rating, Barnyardgrass ([1]; 125 g ai/ha): 20
Plant response rating, Barnyardgrass ([1]; 500 g ai/ha): 60
Plant response rating, Crabgrass, Large ([2]; 125 g ai/ha): 40
Plant response rating, Crabgrass, Large ([2]; 500 g ai/ha): 80
Plant response rating, Foxtail, Giant ([3]; 125 g ai/ha): 30
Plant response rating, Foxtail, Giant ([3]; 500 g ai/ha): 80
Plant response rating, Morningglory ([4]; 125 g ai/ha): 0
Plant response rating, Morningglory ([4]; 500 g ai/ha): 0
Plant response rating, Pigweed ([5]; 125 g ai/ha): 0
Plant response rating, Pigweed ([5]; 500 g ai/ha): 0
Plant response rating, Velvetleaf ([6]; 125 g ai/ha): 0
Plant response rating, Velvetleaf ([6]; 500 g ai/ha): 0
Plant response rating, Wheat ([7]; 125 g ai/ha): 0
Plant response rating, Wheat ([7]; 500 g ai/ha): 0
Plant response rating, Corn (corn (Zea mays) [8]; 125 g ai/ha): 0
Plant response rating, Corn (corn (Zea mays) [8]; 500 g ai/ha): 0
Plant response rating, Barnyardgrass ([9]; 125 g ai/ha): 0
Plant response rating, Barnyardgrass ([9]; 500 g ai/ha): 60
Plant response rating, Crabgrass, Large ([10]; 125 g ai/ha): 20
Plant response rating, Crabgrass, Large ([10]; 500 g ai/ha): 50
Plant response rating, Foxtail, Giant ([11]; 125 g ai/ha): 30
Plant response rating, Foxtail, Giant ([11]; 500 g ai/ha): 60
Plant response rating, Morningglory ([12]; 125 g ai/ha): 0
Plant response rating, Morningglory ([12]; 500 g ai/ha): 0
Plant response rating, Pigweed ([13]; 125 g ai/ha): 0
Plant response rating, Pigweed ([13]; 500 g ai/ha): 10
Plant response rating, Velvetleaf ([14]; 125 g ai/ha): 0
Plant response rating, Velvetleaf ([14]; 500 g ai/ha): 10
Plant response rating, Wheat ([15]; 125 g ai/ha): 0
Plant response rating, Wheat ([15]; 500 g ai/ha): 20
Plant response rating, Corn (corn (Zea mays) [16]; 125 g ai/ha): 0
Plant response rating, Corn (corn (Zea mays) [16]; 500 g ai/ha): 0
Plant response rating, Rice (rice (Oryza sativa); 31 g ai/ha): 0
Plant response rating, Rice (rice (Oryza sativa); 62 g ai/ha): 0
Plant response rating, Rice (rice (Oryza sativa); 125 g ai/ha): 0
Plant response rating, Rice (rice (Oryza sativa); 250 g ai/ha): 0
Plant response rating, Sedge, Umbrella ([17]; 31 g ai/ha): 0
Plant response rating, Sedge, Umbrella ([17]; 62 g ai/ha): 0
Plant response rating, Sedge, Umbrella ([17]; 125 g ai/ha): 0
Plant response rating, Sedge, Umbrella ([17]; 250 g ai/ha): 0
Plant response rating, Ducksalad ([18]; 31 g ai/ha): 0
Plant response rating, Ducksalad ([18]; 62 g ai/ha): 0
Plant response rating, Ducksalad ([18]; 125 g ai/ha): 0
Plant response rating, Ducksalad ([18]; 250 g ai/ha): 0
Plant response rating, Barnyardgrass ([19]; 31 g ai/ha, scale 0 to 100): 0
Plant response rating, Barnyardgrass ([19]; 62 g ai/ha, scale 0 to 100): 0
Plant response rating, Barnyardgrass ([19]; 125 g ai/ha, scale 0 to 100): 0
Plant response rating, Barnyardgrass [19, 20]: 0
